Experimental data published in publication PMC12053052, “Comprehensive physicochemical, biophysical, and in vitro characterization of lung surfactant SP-A peptidomimetics” (Rsc Pharmaceutics, 2025).
Where “and” joins values, the source holds several entries; their conditions need not be identical. Equal values may be shown once. Entries after “also recorded” stand apart in the source; their conditions may differ. No end group written: not given here.

Columns and labels:
[1] = In vitro solubility in pure solvents; assay type: physicochemical; conditions: excess solid, rotated 24 h at ambient room temperature, 0.2 μm filtered, HPLC-UV 220 nm, mean ± SD, N = 3; for solubility thermodynamic at 24 h: PBS, pH 7.4, aqueous buffer, thermodynamic from solid
Experimental: In vitro solubility measurements were conducted using conditions earlier reported.[13] Excess of peptide powder was added to known volume of pure solvent in a glass vial. The vial was allowed to rotate at ambient room temperature for 24 hours.[13] The test solution was filtered using 0.2 μm PTFE or PVDF membrane filters for organic and aqueous solvents respectively. The filtered solution was chemically analyzed by HPLC using conditions described in the HPLC section below.
(§1) High-performance liquid chromatography was used to quantify the peptides. The analysis was performed with a Shimadzu LC-2010AHT HPLC system (Kyoto, Japan), with autosampler fitted to a 20 μL sampling loop and dual wavelength UV-Vis detector and reverse phase C18 Phenomenex Prodigy™column (Torrance, CA) with 250 × 4.6 mm, 5 μm particle size. The mobile phase consisted of (A) 0.065% TFA in water and (B) 0.05% TFA in ACN at a flow rate of 1.0 mL min^−1. Analysis was performed using the following gradient elution method: 100% A to 100% B in 15 minutes, maintained at 100% B until 17.5 minutes. The percentage of A reached 100% in 19.5 minutes and maintained until 25 minutes. The column was maintained at 25 °C. The injection volume was 20 μL. The UV detector was set at 220 nm wavelength. The solvents used to dissolve 10-AA and 20-AA peptide analysis were PBS and pure water, respectively.

[2] = system: H358 (human bronchioalveolar epithelial cells); assay: In vitro cell viability, resazurin assay; assay type: cell-based; conditions: 0.1–1000 μM peptide, 72 h, relative to growth medium control, n = 6, ANOVA/Tukey p < 0.05
Description: (§2) The cell viability of three different human pulmonary cell lines from different lung areas representing the conducting airways, the mid-lung and deep lung respiratory regions of the small airways. They are A549 (human alveolar epithelial lung cells), H358 (human bronchioalveolar epithelial cells) and NCI-H441 (human papillary lung adenocarcinoma cells), were studied using the Resazurin assay. Pulmonary cell lines A549 (ATCC® CCL-185™), H358 (ATCC® CRL-5807™) and NCI-H441 (ATCC® HTB-174™) were purchased from the American Type Culture Collection ATCC® (Manassas, VA). As previously reported,[16] A549 and H358 were grown in Dulbecco's modified eagle's medium (DMEM) Advanced 1× supplemented with 10% v/v fetal bovine serum (FBS), Pen-Strep (100 U mL^−1, 100 μg mL^−1), Fungizone® (0.5 μg mL^−1 amphotericin B, 0.41 μg mL^−1 sodium deoxycholate) and 2 mM L-glutamine obtained from Gibco® by Life Technologies (Thermo Fisher Scientific Inc., Waltham, MA). H441 cell line was grown in RPMI 1640 with L-glutamine Gibco® by Life Technologies (Thermo Fisher Scientific Inc., Waltham, MA).
(§3) The assay was conducted using similar previously reported conditions.[16] Briefly, in Nunc™ MicroWell™ 96-well optical-bottom plates with polymer base (ThermoScientific Waltham, MA) each cell line was seeded at a concentration of 5000 cells in 100 μL per well (six wells, n = 6) and allowed to attach for 48 hours. The cells were treated with 100 μL volume of different concentrations (0.1–1000 μM) of the peptides dissolved in the respective media. After 72 hours, the plate was treated with 20 μL of 10 μM resazurin solution. After 3–4 hours, the fluorescence intensity was read at 514 nm (excitation) and 590 nm (emission) wavelengths using the Synergy H1 Multi-Mode Reader (BioTek Instruments, Inc., Winooski, Vermont). The corresponding growth media was used as control for each cell line. Relative viability was calculated as a ratio of fluorescence intensity of the sample to the control. [drawing 1]

[3] = not given; remark: listed apart in the source
[4] = Octanol/water partition coefficient; assay type: physicochemical; conditions: shake-flask 1-octanol/water 50:50 v/v, 3 mg peptide in 3 mL, 37 °C, 24 h shaking + 24 h separation, HPLC-UV 220 nm, mean ± SD, N = 3
Experimental: Using similar conditions reported earlier,[14] octanol/water partition coefficient (P) measurements were conducted. A mass of 3 mg of peptide powder was added to 3 mL of 1-octanol (1.5 mL) and water (1.5 mL) to create a 50 : 50 v/v octanol : water ratio in a glass vial and allowed to shake in temperature-controlled water bath at 37 °C. After 24 hours, the shaker was stopped and the vial was undisturbed for 24 hours to allow the solvents to separate. An aliquot (20 μL) of water phase and octanol phase was injected into HPLC to quantify the peptide concentration in each phase.
as §1, with “The solvents used to dissolve 10-AA and 20-AA peptide analysis were PBS and pure water, respectively.” left out

[5] = system: NCI-H441 (human papillary lung adenocarcinoma cells); assay: In vitro cell viability, resazurin assay; assay type: cell-based; conditions: 0.1–1000 μM peptide, 72 h, relative to growth medium control, n = 6, ANOVA/Tukey p < 0.05
Description: as §2, §3

[6] = system: A549 (human alveolar epithelial lung cells); assay: In vitro cell viability, resazurin assay; assay type: cell-based; conditions: 0.1–1000 μM peptide, 72 h, relative to growth medium control, n = 6, ANOVA/Tukey p < 0.05
Description: as §2, §3

| Substance | solubility thermodynamic at 24 h [1] [µg/mL] | Solubility in absolute ethanol ([1]; thermodynamic) [µg/mL] | Solubility in methanol ([1]; thermodynamic) [µg/mL] | Enthalpy (ΔH) of melting [3] [J/g] | Solubility in MilliQ water ([1]; thermodynamic) [µg/mL] | further results |
| --- | --- | --- | --- | --- | --- | --- |
| PAGRGKEQCVEMYTDGQWND [SP-A 20-AA PS] | 470 ± 4 | 110 ± 50 | 1450 ± 20 | – | – | Relative cell viability, H358 [2]: decreased viability at higher concentrations; also recorded: statistically significant decrease in viability only with 20-AA PS at 1000 μM |
| H-KEQCVEMYTD-OH | – | – | – | 3.08 | – | Melting temperature (Tm), characteristic endothermic peak: 171 °C and 168 °C |
| KEQCVEMYTD [SP-A 10-AA AC] | – | 40 ± 10 | 10 ± 0.3 | – | 420 ± 40 | Solubility in PBS (pH 7.4) ([1]; thermodynamic): 1.16 ± 0.01 mg mL^−1; logP ([4]; read-out: Log P (octanol/water partition coefficient)): -1.07 ± 0.2 |
| H-PAGRGKEQCVEMYTDGQWND-OH | – | – | – | 1.08 | – | – |
| KEQCVEMYTD [SP-A 10-AA PS] | 1810 ± 20 | 2060 ± 30 | 4250 ± 10 | – | 12200 ± 50 | Log P (octanol/water partition coefficient) [4]: −1.79 |
| PAGRGKEQCVEMYTDGQWND [SP-A 20-AA AC] | – | 20 ± 20 | 20 ± 5 | – | – | Relative cell viability, H441 [5]: reduction in viability at higher concentrations; also recorded: significantly reduced cell viability at concentrations above 100 μM; Relative cell viability, A549 [6]: significantly reduced cell viability at concentrations above 100 μM |
